The numbers were not newly measured in paper PMC4984525 (Cancer, 2011), which cites them from elsewhere.

For this data set, the system named is patients with resistant ovarian cancer. Conditions: preliminary results of a Phase 2 trial; cited from earlier work.

On to `Cc1ccc(C(=O)N(CCCN)[C@@H](c2nc3cc(Cl)ccc3c(=O)n2Cc2ccccc2)C(C)C)cc1` [ispinesib], for which the clinical activity entry is recorded as “has clinical activity”.
